The test system of data set [1] is B16-F10. The data set is described as follows: Inhibition of alphaMSH-induced melanin production in mouse B16F10 cells after 48 hrs by melanin content assay. It is filed as functional, cell-based.
In data set [2] the target is T1, Tyrosinase (Mus musculus) (UniProt P11344).
T1 sequence (whole entry): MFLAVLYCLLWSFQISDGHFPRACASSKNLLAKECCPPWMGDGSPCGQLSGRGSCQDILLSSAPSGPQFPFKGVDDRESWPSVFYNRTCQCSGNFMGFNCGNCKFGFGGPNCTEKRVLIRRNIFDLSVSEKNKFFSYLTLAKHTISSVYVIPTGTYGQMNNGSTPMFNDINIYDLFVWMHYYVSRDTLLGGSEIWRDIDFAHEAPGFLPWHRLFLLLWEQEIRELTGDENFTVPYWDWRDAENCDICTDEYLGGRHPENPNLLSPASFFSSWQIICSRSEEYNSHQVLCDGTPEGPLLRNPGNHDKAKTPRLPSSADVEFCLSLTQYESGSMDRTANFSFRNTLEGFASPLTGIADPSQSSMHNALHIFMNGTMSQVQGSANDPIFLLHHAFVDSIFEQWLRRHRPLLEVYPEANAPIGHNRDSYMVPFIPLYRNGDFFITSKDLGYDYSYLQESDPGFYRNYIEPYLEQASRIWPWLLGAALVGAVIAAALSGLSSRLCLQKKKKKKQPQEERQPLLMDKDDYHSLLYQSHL
The data set is described as follows: Inhibition of tyrosinase in mouse B16F10 cells assessed as L-DOPA oxidation after 24 hrs by ELISA. It is filed as cell-based. As to conditions: B16-F10. In general terms: An ELISA detects its analyte on a solid surface through an enzyme-linked reagent.

Data set [3] concerns the target T1, Tyrosinase (Mus musculus). The data set is described as follows: Inhibition of tyrosinase in mouse B16F10 cells assessed as L-DOPA oxidation at 0.2 uM after 24 hrs by ELISA (reference value: […] %). It is filed as cell-based. As to conditions: B16-F10.
Data set [4] concerns the target T1, Tyrosinase (Mus musculus). Description: Inhibition of tyrosinase in mouse B16F10 cells assessed as L-DOPA oxidation at 0.1 uM after 24 hrs by ELISA (reference value: […] %). It is filed as cell-based. As to conditions: B16-F10.
For data set [5], the system named is B16-F10. Description: Inhibition of alphaMSH-induced melanin production in mouse B16F10 cells at 2 uM after 48 hrs by melanin content assay (reference value: 163.78 %). It is filed as functional. As to conditions: B16-F10, 48 h.
In data set [6] the test system is B16-F10. The data set is described as follows: Inhibition of alphaMSH-induced melanin production in mouse B16F10 cells at 0.1 uM after 48 hrs by melanin content assay (reference value: 163.78 %). It is filed as functional. Particulars: B16-F10, 48 h.
For data set [7], the system named is B16-F10. The data set is described as follows: Inhibition of alphaMSH-induced melanin production in mouse B16F10 cells at 0.2 uM after 48 hrs by melanin content assay (reference value: 163.78 %). It is filed as functional. As to conditions: B16-F10, 48 h.
Data set [8] deals with B16-F10. Description: Inhibition of alphaMSH-induced melanin production in mouse B16F10 cells at 0.05 uM after 48 hrs by melanin content assay (reference value: 163.78 %). It is filed as functional. As to conditions: B16-F10, 48 h.
Data set [9] is described as follows: Cytotoxicity against mouse B16F10 cells assessed as cell viability at 40 uM after 48 hrs by MTT assay. It is filed as cell-based, B16-F10. As to conditions: read-out: Activity. Background: Formazan colour is commonly taken as a measure of viable cells.
Data set [10] in a line: Cytotoxicity against mouse B16F10 cells assessed as cell viability at 10 uM after 48 hrs by MTT assay. It is filed as cell-based, B16-F10. As to conditions: read-out: Activity.
Data set [11] is described as follows: Cytotoxicity against mouse B16F10 cells assessed as cell viability at 20 uM after 48 hrs by MTT assay. It is filed as cell-based, B16-F10. As to conditions: read-out: Activity.
For the next data set, the target named is T2, Tyrosinase (Agaricus bisporus, UniProt O42713).
T2 sequence (O42713 whole entry): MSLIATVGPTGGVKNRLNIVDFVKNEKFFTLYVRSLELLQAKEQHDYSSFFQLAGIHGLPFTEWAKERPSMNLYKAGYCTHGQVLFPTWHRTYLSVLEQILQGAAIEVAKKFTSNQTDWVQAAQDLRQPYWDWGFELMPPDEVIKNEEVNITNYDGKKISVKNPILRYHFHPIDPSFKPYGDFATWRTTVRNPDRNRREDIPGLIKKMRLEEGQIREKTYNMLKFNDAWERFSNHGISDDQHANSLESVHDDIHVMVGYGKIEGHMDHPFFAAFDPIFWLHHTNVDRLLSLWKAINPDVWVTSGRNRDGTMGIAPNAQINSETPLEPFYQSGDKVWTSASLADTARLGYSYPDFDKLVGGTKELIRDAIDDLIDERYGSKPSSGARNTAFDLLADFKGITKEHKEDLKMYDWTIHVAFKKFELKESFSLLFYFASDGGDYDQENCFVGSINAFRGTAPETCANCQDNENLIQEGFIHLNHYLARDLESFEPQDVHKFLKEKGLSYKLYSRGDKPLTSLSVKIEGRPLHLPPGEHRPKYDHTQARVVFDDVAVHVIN
Description: Inhibition of mushroom tyrosinase using L-tyrosine as substrate assessed as amount of dopachrome produced after 30 mins by spectrophotometry.

Data set [12] in a line: Cytotoxicity against mouse B16F10 cells assessed as cell viability at 5 uM after 48 hrs by MTT assay. It is filed as cell-based, B16-F10. Particulars: read-out: Activity.
For data set [13], the target named is T3, Tyrosinase (Agaricus bisporus) (UniProt O42713).
T3 sequence (whole entry): T2 sequence (O42713 whole entry)
The data set is described as follows: Inhibition of mushroom tyrosinase using L-tyrosine as substrate assessed as amount of dopachrome produced at 2 uM after 30 mins by spectrophotometry.

For data set [14], the target named is T3, Tyrosinase (Agaricus bisporus). The data set is described as follows: Inhibition of mushroom tyrosinase using L-tyrosine as substrate assessed as amount of dopachrome produced at 1 uM after 30 mins by spectrophotometry.
The target is the same in data set [15]. Description: Inhibition of mushroom tyrosinase using L-tyrosine as substrate assessed as amount of dopachrome produced at 0.8 uM after 30 mins by spectrophotometry.
Data set [16] has the same target. The data set is described as follows: Inhibition of mushroom tyrosinase using L-tyrosine as substrate assessed as amount of dopachrome produced at 0.1 uM after 30 mins by spectrophotometry.
Data set [17] shares this target. Description: Inhibition of mushroom tyrosinase using L-tyrosine as substrate assessed as amount of dopachrome produced at 0.5 uM after 30 mins by spectrophotometry.
Data set [18] is described as follows: Cytotoxicity against mouse B16F10 cells assessed as cell viability at 2 uM after 48 hrs by MTT assay. It is filed as cell-based, B16-F10. As to conditions: read-out: Activity.

Our source for the inhibition, viability and IC50 values is ChEMBL document CHEMBL2401664, “De novo tyrosinase inhibitor: 4-(6,7-dihydro-5H-indeno[5,6-d]thiazol-2-yl)benzene-1,3-diol (MHY1556)” (Bioorg Med Chem Lett, 2013).

Broadly, the inhibition is the relative decrease from the control value, in per cent. Broadly, the IC50 is the point on the concentration scale where inhibition reaches its midpoint.

Consider `Oc1ccc(-c2nc3cc4c(cc3s2)CCC4)c(O)c1`, for which the inhibition result is “Dose-dependent effect” in the data set with B16-F10 [1]; “Dose-dependent effect” in data set [2]; 109% in data set [3]; 133% in data set [4]; 83.5% in data set [13]; 73.6% in data set [14]. The inhibition was found to be 68.3% in data set [15], 22.2% in data set [16] and 56.5% in data set [17]. Besides, the inhibition at 2 µM with B16-F10 [5] turned out to be 88.8%. In addition, in the data set with B16-F10 [6], the inhibition at 0.1 µM stood at 101%. For the same compound, the inhibition at 0.2 µM in the data set on B16-F10 [7] worked out at 94.5%. In the data set on B16-F10 [8], the inhibition at 0.05 µM worked out at 121%. Further, the viability at 48 h, 40 µM in data set [9] was 88.4%. In [10], the viability at 48 h, 10 µM stood at 98.1%. For the same compound, the viability at 48 h, 20 µM in data set [11] is 95.6%. For the same compound, the concentration for half-maximal inhibition (IC50) at Tyrosinase came to 500 nM. Also, the viability at 48 h, 5 µM in data set [12] amounted to 95%. Further, the viability at 48 h, 2 µM in data set [18] came to 97.9%.
